This is an account of results in patent US7928098B2, “Therapeutic and/or preventive agents for a sleep disorder” (Kyowa Hakko Kirin Co., Ltd., priority 2005, dated 2011).

Each structure is given as a SMILES string.

`COc1cccc(C(=O)c2sc(NC(=O)c3ccncc3)nc2-c2ccco2)n1` [Compound 191, N-[4-(2-Furyl)-5-(6-methoxypyridin-2-ylcarbonyl)thiazol-2-yl]pyridine-4-carboxamide] had a melting point of 247 to 250 °C. Then `Cc1ccc(C(=O)c2sc(NC(=O)c3ccncc3)nc2-c2ccco2)nc1` [Compound 202, N-[4-(2-Furyl)-5-(5-methylpyridin-2-ylcarbonyl)thiazol-2-yl]pyridine-4-carboxamide], with 255 to 257 °C; and `CC(C)(C)NC(=O)Nc1nc(-c2ccco2)c(C(=O)c2ccccn2)s1` [Compound 167, N-tert-Butyl-N′-[4-(2-furyl)-5-(pyridin-2-ylcarbonyl)thiazol-2-yl]urea], with 123 to 124 °C; and `COCCN(C)CC(=O)Nc1nc(-c2ccco2)c(C(=O)C2CCOCC2)s1` [Compound 439, N-[4-(2-Furyl)-5-(tetrahydropyran-4-ylcarbonyl)thiazol-2-yl]-2-[N-(2-methoxyethyl)-N-methylamino]acetamide], with 103 to 105 °C. For the molecule `CC(=O)Nc1nc(-c2ccco2)c(C(=O)c2ccccn2)s1` [Compound 96, N-[4-(2-Furyl)-5-(pyridin-2-ylcarbonyl)thiazol-2-yl]-acetamide], the melting point lay in the range of 216 to 217 °C. In turn, `COCC(=O)Nc1nc(-c2ccco2)c(C(=O)C2CCOCC2)s1` [Compound 435, N-[4-(2-Furyl)-5-(tetrahydropyran-4-ylcarbonyl)thiazol-2-yl]-2-methoxyacetamide] yielded a melting point of 148 to 149 °C. Then `CCOCC(=O)Nc1nc(-c2ccco2)c(C(=O)C2CCOCC2)s1` [Compound 437, 2-Ethoxy-N-[4-(2-furyl)-5-(tetrahydropyran-4-ylcarbonyl)-thiazol-2-yl]acetamide], with 121 to 126 °C; and `COCCN(C)c1cc(C(=O)Nc2nc(-c3ccco3)c(C(=O)c3ccccn3)s2)ccn1` [Compound 125, N-[4-(2-Furyl)-5-(pyridin-2-ylcarbonyl)thiazol-2-yl]-2-[N-(2-methoxyethyl)-N-methylamino]pyridine-4-carboxamide], with 114 to 117 °C; and `O=C(c1ccccn1)c1sc(NC(=O)N2CCCCC2)nc1-c1ccco1` [Compound 165, N-[4-(2-Furyl)-5-(pyridin-2-ylcarbonyl)thiazol-2-yl]piperidine-1-carboxamide], with 182 to 185 °C. The value for `COC1(CN2CCN(CC(=O)Nc3nc(-c4ccco4)c(C(=O)C4CCOCC4)s3)CC2)CC1` [Compound 472, N-[4-(2-Furyl)-5-(tetrahydropyran-4-ylcarbonyl)thiazol-2-yl]-2-{4-[(1-methoxycyclopropyl)methyl]piperazin-1-yl}acetamide] was 155 to 157 °C. The value for `CCN1CCN(CC(=O)Nc2nc(-c3ccco3)c(C(=O)c3ccccn3)s2)CC1` [Compound 181, 2-(4-Ethylpiperazin-1-yl)-N-[4-(2-furyl)-5-(pyridin-2-ylcarbonyl)thiazol-2-yl]acetamide] was 142 to 144 °C; that for `O=C(Nc1nc(-c2ccco2)c(C(=O)C2CCOCC2)s1)c1cccc(F)c1` [Compound 372, 3-Fluoro-N-[4-(2-furyl)-5-(tetrahydropyran-4-ylcarbonyl)-thiazol-2-yl]benzamide] was 229 to 231 °C; that for `N#Cc1ccc(C(=O)Nc2nc(-c3ccco3)c(C(=O)C3CCC(=O)CC3)s2)cc1` [Compound 357, 4-Cyano-N-[4-(2-furyl)-5-(4-oxocyclohexylcarbonyl)-thiazole-2-yl]benzamide] was 211 to 212 °C. Consider `O=C(Nc1nc(-c2ccco2)c(C(=O)C2CCOCC2)s1)C1CCOC1` (stereo not shown) [Compound 429, N-[4-(2-Furyl)-5-(tetrahydropyran-4-ylcarbonyl)thiazol-2-yl]tetrahydrofuran-3-carboxamide], for which the melting point was in the range of 164 to 166 °C.

Turning to `O=C(CC1CCOCC1)Nc1nc(-c2ccco2)c(C(=O)C2CCOCC2)s1` [Compound 430, N-[4-(2-Furyl)-5-(tetrahydropyran-4-ylcarbonyl)thiazol-2-yl]-2-(tetrahydropyran-4-yl)acetamide], the melting point fell in the range of 206 to 209 °C. Then `O=C(CNC12CC3CC(CC(C3)C1)C2)Nc1nc(-c2ccco2)c(C(=O)C2CCOCC2)s1` [Compound 482, N-[4-(2-Furyl)-5-(tetrahydropyran-4-ylcarbonyl)thiazol-2-yl]-2-(adamantan-1-ylamino)acetamide], with 168 to 170 °C; and `CCN(CC)C(=O)C1CCCN(CC(=O)Nc2nc(-c3ccco3)c(C(=O)c3ccccn3)s2)C1.Cl` (stereo not shown), with 180 to 185 °C; and `COc1ccc(C(=O)Nc2nc(-c3ccco3)c(C(=O)c3ccccn3)s2)c(OC)n1` [Compound 132, N-[4-(2-Furyl)-5-(pyridin-2-ylcarbonyl)thiazol-2-yl]-2,6-dimethoxypyridine-3-carboxamide], with 201 to 202 °C.

Regarding `O=C(CCl)Nc1nc(-c2ccco2)c(C(=O)c2ccccn2)s1` [Compound 170, 2-Chloro-N-[4-(2-furyl)-5-(pyridin-2-ylcarbonyl)thiazol-2-yl]acetamide], the melting point is 184 to 185 °C.

With `O=C(Nc1nc(-c2ccco2)c(C(=O)C2CCOCC2)s1)c1ccc(CN2CCC(O)CC2)cc1` [Compound 386, N-[4-(2-Furyl)-5-(tetrahydropyran-4-ylcarbonyl)thiazol-2-yl]-4-(4-hydroxypiperidinomethyl)benzamide], the melting point was in the range of 194 to 195 °C.

On to `O=C(c1ccccn1)c1sc(NC(=O)C2CCC2)nc1-c1ccco1` [Compound 101, N-[4-(2-Furyl)-5-(pyridin-2-ylcarbonyl)thiazol-2-yl]cyclobutanecarboxamide], for which the melting point was 165 to 170 °C. `COC1CCC(C(=O)c2sc(NC(=O)c3ccc(C#N)cc3)nc2-c2ccco2)CC1` (stereo not shown) [Compound 348, 4-Cyano-N-[4-(2-furyl)-5-(4-methoxycyclohexylcarbonyl)-thiazol-2-yl]benzamide] registered a melting point of 105 to 109 °C. Then `O=C(Nc1nc(-c2ccco2)c(C(=O)c2ccccn2)s1)c1ccno1` [Compound 150, N-[4-(2-Furyl)-5-(pyridin-2-ylcarbonyl)thiazol-2-yl]isoxazole-5-carboxamide], with 223 to 230 °C; and `CCn1cc(C(=O)c2sc(NC(=O)c3ccncc3)nc2-c2ccco2)ccc1=O` [Compound 269, N-[5-(1-Ethyl-2-oxo-1,2-dihydropyridin-5-ylcarbonyl)-4-(2-furyl)thiazol-2-yl]pyridine-4-carboxamide], with 295 to 296 °C; and `CCOC(=O)Nc1nc(-c2ccco2)c(C(=O)C2CCOCC2)s1` [Compound 486, Ethyl N-[4-(2-furyl)-5-(tetrahydropyran-4-ylcarbonyl)thiazol-2-yl]carbamate], with 152 to 153 °C. As for `Cc1ccc(C(=O)Nc2nc(-c3ccco3)c(C(=O)C3CCOCC3)s2)o1` [Compound 417, N-[4-(2-Furyl)-5-(tetrahydropyran-4-ylcarbonyl)thiazol-2-yl]-5-methylfuran-2-carboxamide], the melting point lay within 209 to 212 °C. Then `N#Cc1ccc(C(=O)Nc2nc(-c3ccco3)c(C(=O)c3cccnc3)s2)cc1` [Compound 213, 4-Cyano-N-[4-(2-furyl)-5-(pyridin-3-ylcarbonyl)thiazol-2-yl]benzamide], with 288 to 290 °C. With `COc1ccccc1C(=O)Nc1nc(-c2ccco2)c(C(=O)C2CCOCC2)s1` [Compound 366, N-[4-(2-Furyl)-5-(tetrahydropyran-4-ylcarbonyl)thiazol-2-yl]-2-methoxybenzamide], the melting point lay within 181 to 184 °C. Then `Cn1cc(C(=O)Nc2nc(-c3ccco3)c(C(=O)c3ccccc3)s2)ccc1=O` [Compound 58, N-[5-Benzoyl-4-(2-furyl)thiazol-2-yl]-1-methyl-2-oxo-1,2-dihydropyridine-5-carboxamide], with 220 to 225 °C; and `O=C(Nc1nc(-c2ccco2)c(C(=O)C2CCOCC2)s1)c1cnn(-c2ccccc2)c1` [Compound 426, N-[4-(2-Furyl)-5-(tetrahydropyran-4-ylcarbonyl)thiazol-2-yl]-1-phenylpyrazole-4-carboxamide], with 217 to 220 °C; and `O=C(Nc1nc(-c2ccco2)c(C(=O)C2CCOCC2)s1)c1ccc(CN2CCOCC2)cc1` [Compound 387, N-[4-(2-Furyl)-5-(tetrahydropyran-4-ylcarbonyl)thiazol-2-yl]-4-(morpholinomethyl)benzamide], with 92 to 96 °C. The value for `O=C(Nc1nc(-c2ccco2)c(C(=O)c2ccccn2)s1)c1cnc(C2CC2)nc1` [Compound 137, 2-Cyclopropyl-N-[4-(2-furyl)-5-(pyridin-2-ylcarbonyl)thiazol-2-yl]pyrimidine-5-carboxamide] was 150 to 154 °C; that for `O=C(Nc1nc(-c2ccco2)c(C(=O)c2ccccn2)s1)c1ccnc(N2CCOCC2)c1` [Compound 127, N-[4-(2-Furyl)-5-(pyridin-2-ylcarbonyl)thiazol-2-yl]-2-morpholinopyridine-4-carboxamide] was 216 to 217 °C. `O=C(CN1CCC(N2CCOCC2)CC1)Nc1nc(-c2ccco2)c(C(=O)c2ccccn2)s1` [Compound 179, N-[4-(2-Furyl)-5-(pyridin-2-ylcarbonyl)thiazol-2-yl]-2-(4-morpholinopiperidino)acetamide] yielded a melting point of 149 to 150 °C.

In turn, `O=C(Cc1ccccc1)Nc1nc(-c2ccco2)c(C(=O)C2CCOCC2)s1` [Compound 431, N-[4-(2-Furyl)-5-(tetrahydropyran-4-ylcarbonyl)thiazol-2-yl]-2-phenylacetamide] yielded a melting point of 140 to 142 °C. With `COc1cccc(OC)c1C(=O)Nc1nc(-c2ccco2)c(C(=O)C2CCOCC2)s1` [Compound 391, N-[4-(2-Furyl)-5-(tetrahydropyran-4-ylcarbonyl)thiazol-2-yl]-2,6-dimethoxybenzamide], the melting point lay in the range of 152 to 156 °C. As to `COCCCNC(=O)Nc1nc(-c2ccco2)c(C(=O)c2ccccn2)s1` [Compound 169, N-[4-(2-Furyl)-5-(pyridin-2-ylcarbonyl)thiazol-2-yl]-N′-(3-methoxypropyl)urea], the melting point lay in the range of 169 to 170 °C.

Usually melting point stands for the temperature of the solid-liquid transition.
